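Where inhibition never reached the appropriate level, the endpoint shown equals the highest concentration tested. Otherwise, values were interpolated linearly from a five-concentration, 48-hour dose response in 96-well plates. Abbreviation: GI50, concentration required for 50% inhibition of growth. TGI: total growth inhibition.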
Experiments:
Assay in all cases: inhibition of tumour cell growth, NCI panel, 48 h
BT-549 breast = test system: BT-549 breast
HCT-116 colon = test system: HCT-116 colon
HCT-15 colon = test system: HCT-15 colon
MOLT-4 leukemia = test system: MOLT-4 leukemia
NCI/ADR-RES ovarian = test system: NCI/ADR-RES ovarian
SK-MEL-2 melanoma = test system: SK-MEL-2 melanoma
TK-10 renal = test system: TK-10 renal
T-47D breast = test system: T-47D breast

Row | Compound | TGI (BT-549 breast) | TGI (HCT-116 colon) | TGI (HCT-15 colon) | TGI (MOLT-4 leukemia) | TGI (NCI/ADR-RES ovarian) | TGI (SK-MEL-2 melanoma) | TGI (TK-10 renal) | TGI (T-47D breast) | GI50 (BT-549 breast) | GI50 (HCT-116 colon) | GI50 (HCT-15 colon) | GI50 (MOLT-4 leukemia) | GI50 (NCI/ADR-RES ovarian) | GI50 (SK-MEL-2 melanoma) | GI50 (T-47D breast) | GI50 (TK-10 renal)
1 | Cc1cc2nc3n[nH]c(N)c3nc2cc1C | > 100 µM | > 100 µM | > 100 µM | > 100 µM | > 100 µM | > 100 µM | > 100 µM | – | – | – | – | – | – | – | – | –
2 | COc1ccc(/C=C2\C=Cc3ccccc32)cc1OC | – | > 100 µM | > 100 µM | > 100 µM | > 100 µM | > 100 µM | > 100 µM | > 100 µM | – | – | – | – | – | – | – | –
3 | Cc1ccc(Nc2nc(=S)[nH]c3[nH]ncc23)cc1 | > 100 µM | > 100 µM | > 100 µM | > 100 µM | > 100 µM | > 100 µM | > 100 µM | > 100 µM | – | – | – | – | – | – | – | –
4 | CCCCCCCCCOC(=O)c1cnc(Cl)cn1 | 63.3 µM | 31.5 µM | 32 µM | > 100 µM | 48.2 µM | 40.2 µM | 43.9 µM | 51.2 µM | – | – | – | – | – | – | – | –
5 | CSC(SC)=C1CC(=O)Nc2ccccc2C1=O | > 100 µM | > 100 µM | > 100 µM | 96 µM | > 100 µM | > 100 µM | > 100 µM | 56.5 µM | – | – | – | – | – | – | – | –
6 | CCOC(=O)C1(C(=O)OCC)C[C@]23OCCC(=O)[C@H]2[C@H]2C(=O)OC(C)(C)O[C@]23C1 | – | > 100 µM | > 100 µM | > 100 µM | > 100 µM | > 100 µM | > 100 µM | > 100 µM | – | – | – | – | – | – | – | –
7 | CCc1ccc(-c2nnc(COc3ccc(-c4nc5ccc(C)cc5[nH]4)cc3OC)o2)cc1 | 4.34 µM | 11.2 µM | 10.3 µM | > 100 µM | 37.5 µM | 7.81 µM | 5.61 µM | 5.22 µM | 1.96 µM | 3.19 µM | 2.82 µM | 3.26 µM | 3.28 µM | 2.71 µM | 2.15 µM | 2.72 µM
8 | COc1cc(NS(C)(=O)=O)ccc1NCc1cnc2ccc3[nH]c(C)ccc3c12 | > 100 µM | > 100 µM | > 100 µM | 44.7 µM | > 100 µM | 52.3 µM | > 100 µM | 75 µM | – | – | – | – | – | – | – | –
9 | CSC1=N/C(=C\c2ccc(C)cc2)C(=O)N1CN1CCOCC1 | – | > 100 µM | > 100 µM | > 100 µM | > 100 µM | > 100 µM | > 100 µM | – | – | – | – | – | – | – | – | –
10 | CN(C)CCCNc1c(O)c2c(c(O)c1Cl)C(=O)C=CC2=O | 2.94 µM | 5.1 µM | 3.28 µM | 5.04 µM | 5.38 µM | – | > 10 µM | 4.28 µM | – | – | – | – | – | – | – | –
11 | CC(C)(C)OC(=O)[N+](=N)C(=O)C1CCC(=O)N1C(=O)OCc1ccccc1 (configuration not stated) | > 100 µM | > 100 µM | – | > 100 µM | > 100 µM | – | > 100 µM | > 100 µM | – | – | – | – | – | – | – | –
12 | C/C(=N/NC(=S)Nc1ccccc1Cl)c1ccccn1 | 19.9 µM | 14.2 µM | 18 µM | 3.62 µM | 6.53 µM | 9.47 µM | 17.1 µM | 6.82 µM | – | – | – | – | – | – | – | –
13 | CC1=C(/C=C/C(C)=C/C=C/C(C)=C/C(=O)OCC2OC(n3cc(F)c(=O)[nH]c3=O)CC2OC(=O)/C=C(C)/C=C/C=C(C)/C=C/C2=C(C)CCCC2(C)C)C(C)(C)CCC1 (configuration not stated) | > 76.3 µM | 27.1 µM | > 57.1 µM | > 100 µM | > 100 µM | > 100 µM | > 58.4 µM | > 64.7 µM | – | – | – | – | – | – | – | –
14 | CCCCCCCCC[C@@H]1C[C@@H]2CCC3C(C(=O)OC)=C(C)NC(=N1)N32 (some centres not stated) | 24.4 µM | 17.3 µM | 38.3 µM | > 100 µM | 52.2 µM | 26.5 µM | 29.1 µM | 25.3 µM | – | – | – | – | – | – | – | –
15 | CCOC(=O)c1cc2cc(N(C(C)=O)C(C)=O)ccc2s1 | 91.5 µM | > 100 µM | > 100 µM | 51 µM | > 100 µM | 51.6 µM | > 100 µM | 81.3 µM | – | – | – | – | – | – | – | –
16 | CC/C(=N\NC(=O)c1cccnc1)c1ccc2c(c1)OCCO2 | > 100 µM | > 100 µM | > 100 µM | > 100 µM | > 100 µM | > 100 µM | > 100 µM | > 100 µM | – | – | – | – | – | – | – | –
17 | c1ccc2c(c1)ccc1nc(-c3ccc4c(c3)OCO4)c3c(c12)CCCC3 | > 100 µM | > 100 µM | > 100 µM | > 100 µM | > 100 µM | > 100 µM | – | 94.5 µM | – | – | – | – | – | – | – | –
18 | Cc1ccc2c(c1)SSSSS2 | 39.1 µM | 30.6 µM | 30 µM | > 100 µM | 66.7 µM | – | 37.9 µM | 29 µM | – | – | – | – | – | – | – | –
19 | S=c1[nH]nc(COc2ccc3c(c2)CCCC3)n1/N=C/c1ccc(Cl)cc1 | 31.3 µM | 28.6 µM | 41 µM | 46.9 µM | 33.7 µM | 36.2 µM | 38.6 µM | 30.3 µM | – | – | – | – | – | – | – | –
20 | CC(=O)N=C(N=Nc1c(O)[nH]c2ccc(C)cc12)NC(C)=O | > 100 µM | > 100 µM | > 100 µM | > 100 µM | > 100 µM | > 100 µM | > 100 µM | > 100 µM | – | – | – | – | – | – | – | –
21 | NC(=O)NC(=O)c1cnccn1 | – | > 100 µM | > 100 µM | > 100 µM | > 100 µM | > 100 µM | > 100 µM | – | – | – | – | – | – | – | – | –
22 | CCOC(=O)CC(=O)NC1CC2CCC1(C)C2(C)C (configuration not stated) | > 100 µM | > 100 µM | > 100 µM | > 100 µM | > 100 µM | – | > 100 µM | – | – | – | – | – | – | – | – | –
23 | COc1c(CC=C(C)C)c(O)c(C(CC(C)C)c2c(O)c(C(C)=O)c(O)c3c2OC(C(C)(C)O)C3)c(O)c1C(C)=O (configuration not stated) | 10.6 µM | > 12.5 µM | > 12.5 µM | > 12.5 µM | 12.2 µM | – | – | 8.36 µM | – | – | – | – | – | – | – | –
24 | CN(C1=NCCO1)c1cccc2ccccc12 | – | > 10 µM | > 10 µM | > 10 µM | > 10 µM | > 10 µM | > 10 µM | > 10 µM | – | – | – | – | – | – | – | –
25 | CC(=O)/C(C=Nc1c(C)n(C)n(-c2ccccc2)c1=O)=C(/C)O | > 100 µM | > 100 µM | > 100 µM | > 100 µM | > 100 µM | > 100 µM | > 100 µM | – | – | – | – | – | – | – | – | –
26 | Cc1ccc(-c2c(C#N)c(-c3ccc(Cl)cc3)c(C#N)c(=O)n2NS(=O)(=O)c2ccccc2)cc1 | > 100 µM | > 100 µM | > 100 µM | > 100 µM | > 100 µM | > 100 µM | > 100 µM | – | – | – | – | – | – | – | – | –

From PubChem BioAssay (NCI)
